Assay results published in US10766855B2, “Hydroxamate triterpenoid derivatives” (VIVACELL BIOTECHNOLOGY ESPANA S.L., priority 2016, dated 2020).

Tests used:
[1] = test system: HIF-1α; assay: HIF-1α stabilization in 293T cells (Western blot); assay type: cell-based, human; details: increasing concentrations, 3 h
Method: Stimulation of human Embryonic Kidney 293 cells with increasing concentrations of compound VII or with DFX (150 μM) during 3 h. The steady state levels of the proteins HIF-1α, PHD1, PHD2 and β-actin were determined by Western blots.
Next, Human Embryonic Kidney 293 cells (293T) were stimulated with the increasing concentrations of compound VII or with DFX (150 μM) during 3 h. After that, proteins isolation and western blots were performed as in FIG. 3. The antibody against HIF-1α (610959) was from BD Biosciences (USA), the antibodies anti-PHD1 (ab80361) and anti-PHD2 (ab109088) were from Abcam (Cambrigde, UK), and the antibody anti-β-actin (AC-74) was purchased from Sigma-Aldrich (Saint Louis, Mo., USA).

[2] = test system: STHdhQ7/Q7 and STHdhQ111/Q111 striatal cells; assay: 3-NP-induced cytotoxicity in striatal Q7 and Q111 cells (YOYO-1); assay type: cell-based, mouse; details: 6 h pre-treatment, 3-NP 10 mM 24 h; compound VII increasing concentrations, DFX 50 μM
Method: FIG. 8. Compound VII abrogates 3-NP toxicity in Q7 and […] striatal cells. Q7 and Q111 Striatal cells were pretreated with increasing concentrations of compound VII for 6 h and then exposed to 3-NP (10 mM) for an additional 24 h, after which YOYO-1 staining was used to investigate cell death. Cell death was determined using the IncuCyte HD software and the treatment with 3-NP alone in Q111 cells was considered as 100% of cell death.
To investigate whether HIF activation in striatal Q7 and Q111 cells is sufficient to protect striatal neurons (provide neuroprotection), the effect of compound VII on 3-NP induced death was examined. […]
STHdh^Q7/Q7 and STHdh^Q111/Q111 cells (10^4 cells/well in 96-well plates) were incubated with YOYO-1 (Life Technologies) and then treated with 3-NP (10 mM) and or DFX (50 μM) as a positive control for PHDs inhibition. […] The uptake of YOYO-1 by damaged cells correlates with the increase in YOYO-1 fluorescence. Treated cells are placed in an Incucyte FLR imaging system, and the YOYO-1 fluorescence is measured after 24 h of 3-NP treatment. Following the incubation period object counting analysis was performed using the Incucyte FLR software to calculate the total number of YOYO-1 fluorescence positive cells and total DNA containing objects (end point). […]

In the case of `C=C(C)[C@@H]1CC[C@]2(C(=O)NO)CC[C@]3(C)[C@H](CC[C@@H]4[C@@]5(C)CC[C@H](O)C(C)(C)[C@@H]5CC[C@]43C)[C@@H]12` [Compound VII, (3β) 3-Hydroxy-N-hydroxy-lup-20(29)-en-28-amide], the HIF-1α expression [1] is reported as “stabilized HIF-1α expression”, the “expression of PHD1 and PHD2” value [1] is reported as “without affecting the expression of PDH1 and PDH2” and the “neuroprotection to 3-NP-induced cytotoxicity (cell death)” value [2] is reported as “clearly provided a significant level of neuroprotection”.
